Laboratory results as given in patent US11944600B2, “Use of cannabinoids in the treatment of a neurodegenerative disease or disorder” (priority 2017, dated 2024).

Legend:
TDP-43 transgenic mice [1] = assay: Nissl-stained spinal motor neurons in TDP-43 transgenic mouse model of ALS; type: in vivo; details: TDP-43 transgenic male mice, 10 mg/kg/day i.p. from 60 to 90 days of age, vs vehicle (p<0.05), FIG. 1
Protocol: (§1) A transgenic mouse model of ALS, TDP-43, was used to determine the effects of the cannabinoids in treatment of symptoms of ALS.
(§2) The TDP-43 transgenic and wild-type mice were subjected to genotyping to identify the presence of mutant TDP-43 gene. These mice were used for a chronic i.p. treatment (from 60 days of age up to the age of 90 days) with cannabinoid or vehicle.
(§3) All studies were conducted in male mice (n=6-8 subjects in each experimental group).
(§4) The neuroprotective effects of 2 different phytocannabinoids (CBDV and CBDA) were investigated. The cannabinoids were administered at a dose of 10 mg/kg/day.
(§5) Animals were euthanized at the end of the treatment period and their spinal cords collected for biochemical and histopathological analyses.
(§6) Data were assessed using one-way (immunostaining data) or two-way (rotarod data) ANOVA followed by an appropriate post-hoc test (Student Newman-Keuls for immunostaining data, and Bonferroni for behavioural data) significance was reported at p≤0.05. Data shown in the figures represent “p<0.01, ***p<0.001.

TDP-43 transgenic mice [2] = assay: Rotarod test in TDP-43 transgenic mice; type: in vivo, mouse; details: 10 mg/kg/day i.p.; for motor performance on rotarod compared to wild type: vs wild type
Protocol: as §1, §2, §3, §4
(§7) Animals were recorded for neurological decline by testing rotarod performance and observing limb clasping during the whole treatment period. The weight of the animals was also recorded during the treatment period.
as §6
The rotarod test was utilised to quantify the muscle weakness characteristic of TDP-43 transgenic mice.

TDP-43 transgenic mice [3] = assay: lba-1 immunostaining of spinal cord microglial cells in TDP-43 transgenic mice; type: in vivo, mouse; details: TDP-43 transgenic male mice, 10 mg/kg/day i.p. from 60 to 90 days of age, FIG. 3
Protocol: as §1, §2, §3, §4, §5
Data were assessed using one-way (immunostaining data) or two-way (rotarod data) ANOVA followed by an appropriate post-hoc test (Student Newman-Keuls for immunostaining data, and Bonferroni for behavioural data) significance was reported at p≤0.05. […]
The number of microglial cells in the spinal cord was quantified using lba-1 immunostaining, and again differentiating resting and activated cells through the analysis of their morphological characteristics (e.g. cell shape and size, type of processes). […] This was also seen when the ratio between cell body area and cell process length was calculated.

TDP-43 transgenic mice [4] = assay: Weight gain in TDP-43 transgenic mice; type: in vivo, mouse; details: TDP-43 transgenic male mice, 10 mg/kg/day i.p., FIG. 6A/6B
Protocol: as §1, §2, §3, §4, §7
The weight gain of animals was also monitored, this is a variable which is frequently used to monitor disease progression in animal models of ALS.

TDP-43 transgenic mice [5] = assay: Limb clasping in TDP-43 transgenic mice; type: in vivo, mouse; details: TDP-43 transgenic male mice, 10 mg/kg/day i.p., FIG. 5
Protocol: as §1, §2, §3, §4, §7, §6

TDP-43 transgenic mice [6] = assay: GFAP immunostaining of spinal cord astrocytes in TDP-43 transgenic mice; type: in vivo, mouse; details: TDP-43 transgenic male mice, 10 mg/kg/day i.p. from 60 to 90 days of age, FIG. 2
Protocol: as §1, §2, §3, §4, §5, §6
The reduction of spinal motor neurons in TDP-43 transgenic mice was associated with an elevation in the number of astrocytes labelled with Glial fibrillary acidic protein (GFAP) immunostaining, in particular activated astrocytes identified by analysis of their morphological characteristics (e.g. increased cell shape and size, reduction in the length of processes).

[7] = test system: experimental model of ALS; details: prior art statement; cited from earlier work
patients with ALS = details: 27 patients with ALS, 5 mg of THC twice daily; cited from earlier work
[8] = test system: mSOD1-transgenic (G93A) mice; assay: Nissl-stained motor neurons in ventral horn of spinal cord in SOD-1 transgenic mice; type: in vivo, mouse; details: SOD-1 mutant male mice vs vehicle-treated mutant mice; BDS 10 mg/kg i.p., olesoxime 3 mg/kg s.c., 10 to 21 weeks of age, FIG. 9
Protocol: (§8) A transgenic mouse model of ALS, SOD1, was used to determine the effects of the combined treatment of a drug used in the treatment of ALS, olesoxime, with THC.
(§9) mSOD1-transgenic (G93A) and wild-type mice were subjected to genotyping to identify the presence of mutant SOD-1. These mice were used for chronic treatment (from 10 weeks of age up to the age of 21 weeks) with test article or vehicle.
as §3
(§10) The treatment groups were as follows: THC-BDS (10 mg/kg; i.p.); CBD-BDS (10 mg/kg; i.p); olesoxime (3 mg/kg; s.c.); a combination of THC-BDS and olesoxime; and vehicle. A group of wild-type animals were also treated with vehicle.
as §5
(§11) Data were assessed using one-way (immunostaining data) or two-way (rotarod data) ANOVA followed by an appropriate post-hoc test (Student Newman-Keuls for immunostaining data, and Bonferroni for behavioural data) significance was reported at p≤0.05. Data shown in the figures represent “p<0.01, ***p<0.001
The number of motor neurons in the ventral horn of the spinal cord was quantified using Nissl staining.

[9] = test system: mSOD1-transgenic (G93A) mice; assay: Neurological score in SOD-1 transgenic mice; type: in vivo, mouse; details: SOD-1 mutant male mice, treated from 10 to 21 weeks of age; BDS 10 mg/kg i.p., olesoxime 3 mg/kg s.c., FIG. 8
Protocol: as §8, §9, §3, §10
(§12) Animals were recorded for neurological decline by testing rotarod performance during the whole treatment period. Animals were recorded for neurological decline (using a previously published ALS-related neurological scale; de Munck et al., 2013).
as §11

[10] = test system: mSOD1-transgenic (G93A) mice; assay: Rotarod performance in SOD-1 transgenic mice; type: in vivo, mouse; details: SOD-1 transgenic male mice, treated from 10 to 21 weeks of age; BDS 10 mg/kg i.p., olesoxime 3 mg/kg s.c., FIG. 7
Protocol: as §8, §9, §3, §10, §12, §11

ALS patients = details: in some patients; cited from earlier work

C=C(C)[C@@H]1CCC(C)=C[C@H]1c1c(O)cc(CCCCC)c(C(=O)O)c1O [CBDA, Cannabidiolic acid]
loss of Nissl-stained motor neurons in the spinal cord (TDP-43 transgenic mice [1]): almost completely recovered
performance on the rotarod compared to vehicle (TDP-43 transgenic mice [2]; TDP-43 mice at 12 weeks of age, vs vehicle): significantly superior performance
motor performance on rotarod compared to wild type (TDP-43 transgenic mice [2]; TDP-43 mice at 12 weeks of age): significantly impaired
rotarod performance (latency to fall) during disease progression (TDP-43 transgenic mice [2]; TDP-43 transgenic male mice, even at advanced stages of the disease, FIG. 4): attenuated the rotarod worsening
lba-1 immunostaining changes (cell bodies, cell processes, ratio), all parameters (TDP-43 transgenic mice [3]): reversed the changes
marked weight loss (weight gain monitoring) (TDP-43 transgenic mice [4]): prevent
increase in limb clasping (TDP-43 transgenic mice [5]): strongly and significantly attenuated
ratio between cell body area and process length (GFAP-labelled astrocytes) (TDP-43 transgenic mice [6]): reduced
total immunoreactivity for GFAP (TDP-43 transgenic mice [6]): reduced

C=C(C)[C@@H]1CCC(C)=C[C@H]1c1c(O)cc(CCC)cc1O [CBDV, Cannabidivarin]
loss of Nissl-stained motor neurons in the spinal cord (TDP-43 transgenic mice [1]): almost completely recovered
motor performance on rotarod compared to wild type (TDP-43 transgenic mice [2]; TDP-43 mice at 12 weeks of age): significantly impaired
lba-1 immunostaining changes (cell bodies, cell processes, ratio), all parameters (TDP-43 transgenic mice [3]): reversed the changes
marked weight loss (weight gain monitoring) (TDP-43 transgenic mice [4]): reduce
ratio between cell body area and process length (GFAP-labelled astrocytes) (TDP-43 transgenic mice [6]): reduced
total immunoreactivity for GFAP (TDP-43 transgenic mice [6]): reduced

CCCCCc1cc(O)c2c(c1)OC(C)(C)c1ccc(C)cc1-2 [CBN, cannabinol, reference compound]
neuroprotection in an experimental model of ALS [7]: neuroprotective

CCCCCc1cc(O)c2c(c1)OC(C)(C)[C@@H]1CCC(C)=C[C@@H]21 [THC, Tetrahydrocannabinol]
neuroprotection in an experimental model of ALS [7]: neuroprotective

CCCCCc1cc(O)c2c(c1)OC(C)(C)[C@@H]1CCC(C)=C[C@@H]21 [dronabinol]
effect on the cramps associated with ALS (patients with ALS): failed to have a significant effect

CC(C)CCC[C@@H](C)[C@H]1CC[C@H]2[C@@H]3CCC4=CC(=NO)CC[C@]4(C)[C@H]3CC[C@]12C [olesoxime]
number of Nissl-stained motor neurons in the ventral horn of the spinal cord [8]: statistically significant
elevated Neurological Score (neurological decline) [9]: non-significant trends towards a reduced score
rotarod performance (time spent on the rod) [10]: able to attenuate the effect

Nc1nc2ccc(OC(F)(F)F)cc2s1 [riluzole]
onset of ventilator-dependence or tracheostomy (ALS patients): delays
